In ChEMBL document CHEMBL6092194, “Development of membrane-targeting chalcone derivatives as antibacterial agents against multidrug-resistant bacteria” (Eur J Med Chem, 2024):
Active and inactive are the calls of the source. No cut-off for these calls is given here.

Tests used:
Escherichia coli [1] = experiment: Ratio of MBC for Escherichia coli ATCC25922 in presence of 50% serum to MBC for Escherichia coli ATCC25922 in Mueller Hinton Broth; type: functional
Staphylococcus aureus [2] = experiment: Bactericidal activity against Staphylococcus aureus ATCC43300 in presence of 50% blood; type: functional
Staphylococcus aureus [3] = experiment: Antibacterial activity against Staphylococcus aureus ATCC43300 infected in sepsis mouse model assessed as log reduction in bacterial load in kidney at 5 mg/kg pre-infected with bacteria for 1 hrs followed by compound administration at 12 hrs interval for 2 days relative to control; type: functional; conditions: time 2 day
Staphylococcus aureus [4] = experiment: Bactericidal activity against Staphylococcus aureus ATCC43300 assessed as log reduction in bacterial colony at 8 microg/ml measured upto 24 hrs by time-kill kinetics assay; type: functional; conditions: dose 8 µg/ml
Staphylococcus aureus [5] = experiment: Antibiofilm activity against Staphylococcus aureus ATCC43300 assessed as inhibition of biofilm formation at 8 microg/ml relative to control; type: functional
[6] = system: Staphylococcus epidermidis; experiment: Antibacterial activity against erythromycin-susceptible Staphylococcus epidermidis ATCC12228 by broth microdilution assay; type: functional
Staphylococcus aureus [7] = experiment: Antibacterial activity against penicillin-resistant Staphylococcus aureus ATCC31007 by broth microdilution assay; type: functional
Escherichia coli [8] = experiment: Disruption of preformed biofilm in Escherichia coli ATCC25922 assessed as eradication of biofilm at 8 microg/ml relative to control; type: functional; conditions: dose 8 µg/ml
Staphylococcus aureus [9] = experiment: Bactericidal activity against Staphylococcus aureus ATCC43300 in presence of 50% serum; type: functional
Escherichia coli [10] = experiment: Induction of morphological changes in Escherichia coli ATCC25922 assessed as disruption of cell membrane by scanning electron microscopic analysis; type: functional, organism-based
Cell membrane [11] = experiment: Disruption of cell membrane in Escherichia coli ATCC25922 assessed as increase in protein leakage; type: subcellular; conditions: dose 1-8 µg/ml
Staphylococcus aureus [12] = experiment: Disruption of preformed biofilm in Staphylococcus aureus ATCC43300 assessed as eradication of biofilm at 32 microg/ml relative to control; type: functional; conditions: dose 32 µg/ml
Staphylococcus aureus [13] = experiment: Selectivity ratio of MBC for Staphylococcus aureus ATCC43300 in presence of 50% blood to MBC for Staphylococcus aureus ATCC43300 in Mueller Hinton Broth; type: functional
[14] = Selectivity index, ratio of HC50 for hemolytic activity in red blood cells (unknown origin) to MIC for antibacterial activity against penicillin-resistant Staphylococcus aureus ATCC43300; type: toxicity, cell-based, RBC; conditions: read-out: Selectivity Index
Enterococcus faecalis = experiment: Antibacterial activity against vancomycin susceptible Enterococcus faecalis ATCC29212 by broth microdilution assay; type: functional
Cell membrane [15] = experiment: Disruption of cell membrane in Staphylococcus aureus ATCC43300 assessed as increase in intracellular ROS level by DCFH-DA staining based fluorescence analysis; type: subcellular; conditions: dose 1-8 µg/ml
Cell membrane [16] = experiment: Induction of cytoplasmic membrane depolarization in Escherichia coli ATCC25922 assessed as fold increase in fluorescence intensity at 8 microg/ml measured within 24 mins by DiSC3(5) dye-based fluorescence assay relative to negative control; type: subcellular; conditions: dose 8.0 µg/ml
Escherichia coli [17] = experiment: Bactericidal activity against Escherichia coli ATCC25922 in presence of 50% serum; type: functional
Escherichia coli [18] = experiment: (§1) Antibacterial activity against Escherichia coli ATCC25922 infected in sepsis mouse model assessed as reduction in inflammatory cell infiltration in spleen at 10 mg/kg pre-infected with bacteria for 1 hrs followed by compound administration at 12 hrs interval for 2 days by H and E staining based analysis; type: functional, organism-based; conditions: time 2.0 day
Cell membrane [19] = experiment: Induction of inner membrane permeabilization in Escherichia coli ATCC25922 assessed as fold increase in fluorescence intensity at 8 microg/ml incubated for 20 mins by PI uptake assay relative to negative control; type: subcellular; conditions: dose 8.0 µg/ml
Cell membrane [20] = experiment: Induction of cytoplasmic membrane depolarization in Staphylococcus aureus ATCC43300 assessed as increase in fluorescence intensity at 0.5 microg/ml measured after 24 mins by DiSC3(5) dye-based fluorescence assay; conditions: dose 0.5 µg/ml
Staphylococcus aureus [21] = experiment: Antibiofilm activity against Staphylococcus aureus ATCC43300 assessed as inhibition of biofilm formation at 16 microg/ml relative to control; type: functional
Staphylococcus aureus [22] = experiment: Selectivity ratio of MBC for Staphylococcus aureus ATCC43300 in presence of 50% serum to MBC for Staphylococcus aureus ATCC43300 in Mueller Hinton Broth; type: functional
[23] = Selectivity ratio of MBC for Staphylococcus aureus ATCC43300 in presence of 50% plasma to MBC for Staphylococcus aureus ATCC43300 in Mueller Hinton Broth; type: functional
Staphylococcus aureus [24] = experiment: Drug resistance, ratio of MIC for Staphylococcus aureus ATCC43300 measured after 20 passages to MIC for Staphylococcus aureus ATCC43300 measured after first exposure; type: functional
Escherichia coli [25] = experiment: Bactericidal activity against Escherichia coli ATCC25922 in presence of 50% blood; type: functional
Cell membrane [26] = experiment: Induction of inner membrane permeabilization in Staphylococcus aureus ATCC43300 assessed as increase in fluorescence intensity incubated for 20 mins by PI uptake assay; type: subcellular; conditions: dose 0.5-8 µg/ml
Escherichia coli [27] = experiment: Antibacterial activity against Escherichia coli ATCC25922 infected in sepsis mouse model assessed as reduction in liver damage at 5 to 10 mg/kg pre-infected with bacteria for 1 hrs followed by compound administration at 12 hrs interval for 2 days by H and E staining based analysis; type: functional, organism-based; conditions: dose 5-10 mg/kg, time 2.0 day
[28] = Cytotoxicity against human L02 cells by CCK8 assay; type: toxicity, cell-based
Cell membrane [29] = experiment: Disruption of cell membrane in Escherichia coli ATCC25922 assessed as increase in DNA leakage; conditions: dose 1-8 µg/ml
Escherichia coli [30] = experiment: as §1, with “liver” for “spleen”; type: functional, organism-based; conditions: time 2.0 day
Escherichia coli [31] = experiment: Antibacterial activity against Escherichia coli ATCC25922 infected in sepsis mouse model assessed as reduction in kidney inflammation at 5 to 10 mg/kg pre-infected with bacteria for 1 hrs followed by compound administration at 12 hrs interval for 2 days by H and E staining based analysis; type: functional, organism-based; conditions: dose 5-10 mg/kg, time 2.0 day
Escherichia coli [32] = experiment: Bactericidal activity against Escherichia coli ATCC25922 in presence of 50% plasma; type: functional
Staphylococcus aureus [33] = experiment: Antibacterial activity against Staphylococcus aureus ATCC43300 infected in sepsis mouse model assessed as log reduction in bacterial load in kidney at 10 mg/kg pre-infected with bacteria for 1 hrs followed by compound administration at 12 hrs interval for 2 days relative to control; type: functional; conditions: time 2 day
Cell membrane [34] = experiment: Induction of cytoplasmic membrane depolarization in Staphylococcus aureus ATCC43300 assessed as fold increase in fluorescence intensity at 4 microg/ml measured after 24 mins by DiSC3(5) dye-based fluorescence assay relative to negative control; conditions: dose 4.0 µg/ml
Escherichia coli [35] = experiment: Antibacterial activity against Escherichia coli ATCC25922 measured after 20 passages; type: functional, organism-based
Staphylococcus aureus [36] = experiment: Antibacterial activity against erythromycin susceptible Staphylococcus aureus ATCC25923 by broth microdilution assay; type: functional
Pseudomonas aeruginosa = experiment: Antibacterial activity against penicillin-susceptible Pseudomonas aeruginosa ATCC27853 by broth microdilution method; type: functional
[37] = Cytotoxicity against human L02 cells assessed as cell viability at 8 microg/ml by CCK8 assay relative to control; type: toxicity, cell-based; conditions: at 8 µg/mL, read-out: Activity

CCCCCCOc1cc[n+](CCCOc2ccc(/C=C/C(=O)c3ccc(OCCC[n+]4ccc(OCCCCCC)cc4)cc3)cc2)cc1.[Br-].[Br-]
Ratio (Escherichia coli [1]): < 2 | MIC (Staphylococcus aureus [2]): 16 µg/mL | log(activity) (Staphylococcus aureus [3]): 0.86 | log(activity) (Staphylococcus aureus [4]): 7.24 | inhibition at 8 µg/mL (Staphylococcus aureus [5]): 90.8% | MIC [6]: 0.5 µg/mL | MIC (Staphylococcus aureus [7]): 1 µg/mL | Activity (Escherichia coli [8]): 41.61% | MBC (Staphylococcus aureus [9]): 16 µg/mL | Activity (Escherichia coli [10]): Active | Activity (Cell membrane [11]): Dose-dependent-effect | Activity (Staphylococcus aureus [12]): >35.94% | Ratio (Staphylococcus aureus [13]): < 2 | selectivity ratio [14]: 659 | MIC (Enterococcus faecalis): 0.5 µg/mL | Activity (Cell membrane [15]): Dose-dependent-effect | fold change (FC) (Cell membrane [16]): 7.5 | MBC (Escherichia coli [17]): 32 µg/mL | Activity (Escherichia coli [18]): inactive | fold change (FC) (Cell membrane [19]): 1.9 | Activity (Cell membrane [20]): Not active; Fluorescence Intensity Remained Comparable To Negative Control | inhibition at 16 µg/mL (Staphylococcus aureus [21]): 90.9% | Ratio (Staphylococcus aureus [22]): < 2 | Ratio [23]: <2 | Ratio (Staphylococcus aureus [24]): 4 | MIC (Escherichia coli [25]): 32 µg/mL | Activity (Cell membrane [26]): Dose-dependent-effect | Activity (Escherichia coli [27]): Active | CC50 [28]: 25.9 µg/mL | Activity (Cell membrane [29]): Dose-dependent-effect | Activity (Escherichia coli [30]): inactive | Activity (Escherichia coli [31]): Active | MBC (Escherichia coli [32]): 8 µg/mL | log(activity) (Staphylococcus aureus [33]): 1.76 | fold change (FC) (Cell membrane [34]): 5.8 | Activity (Escherichia coli [35]): Active | MIC (Staphylococcus aureus [36]): 1 µg/mL | MIC (Pseudomonas aeruginosa): 32 µg/mL | viability at 8 microg/ml [37]: 93.9%
